# Data as given in article PMC9574929, “Development of Hydrogen Sulfide-Releasing Carbonic Anhydrases IX- and XII-Selective Inhibitors with Enhanced Antihyperalgesic Action in a Rat Model of Arthritis” (Journal of Medicinal Chemistry, 2022).
# pKi: −log10 of the molar value.
# Legend:
# [1] = test system: rat model of arthritis induced by the intra-articular injection of complete Freund's adjuvant (CFA); experiment: Incapacitance test, CFA-induced arthritis; type: in vivo
# Experimental: (§1) Articular damage was induced by injection of Complete Freund’s Adjuvant (CFA; Sigma-Aldrich, St Louis, MO, USA), containing 1 mg/mL of heat-killed and dried Mycobacterium tuberculosis in paraffin oil and mannide monooleate, into the tibiotarsal joint.[50] Briefly, the rats were lightly anesthetized with 2% isoflurane, the left leg skin was sterilized with 75% ethyl alcohol, and the lateral malleolus was located by palpation. A 28-gauge needle was then inserted vertically to penetrate the skin and turned distally for insertion into the articular cavity at the gap between the tibiofibular and tarsal bone until a distinct loss of resistance was felt. A volume of 50 μL of CFA was then injected (day 0). Control rats received 50 μL of saline solution (day 0) in the tibiotarsal joint.
# (§2) The hybrid derivatives 26, 29, 30, and 31 (1, 10, and 30 mg/kg) were suspended in a 1% solution of carboxymethylcellulose (CMC) sodium salt and acutely per os administered starting from day 14 after CFA i.a. injection, when arthritis was well established. The H2S releaser 3 and CAI 15 were also administered alone or in coadministration at the equimolar dose of compound 30 30 mg/kg (13.23 and 17.71 mg/kg, respectively). The antihypersensitivity effects were evaluated over time by the Paw pressure and Incapacitance tests.
# Weight-bearing changes were measured using an incapacitance apparatus (Linton Instrumentation, Norfolk, U.K.) to detect changes in postural equilibrium after a hind limb injury.[53],[54] Rats were trained to stand on their hind paws in a box with an inclined plane (65° from horizontal). This box was placed above the incapacitance apparatus. This allowed us to independently measure the weight that the animal applied on each hind limb. The value reported for each animal is the mean of five consecutive measurements. In the absence of hind limb injury, rats applied an equal weight on both hind limbs, indicating postural equilibrium, whereas an unequal distribution of weight on the hind limbs indicated a monolateral decreased pain threshold. Data are expressed as the difference between the weight applied to the limb contralateral to the injury and the weight applied to the ipsilateral limb (Δ weight).
# [2] = test system: rat model of arthritis induced by the intra-articular injection of complete Freund's adjuvant (CFA); experiment: Paw pressure test, CFA-induced arthritis; type: in vivo
# Experimental: as §1, §2
# The nociceptive threshold of rats was determined with an analgesimeter (Ugo Basile, Varese, Italy), according to the method described by Leighton et al.[51] and Maresca et al.,[52] (doi: 10.1111/jphp.12828). Briefly, a constantly increasing pressure was applied to a small area of the dorsal surface of the hind paw using a blunt conical probe by a mechanical device. Mechanical pressure was increased until vocalization or a withdrawal reflex occurred while rats were lightly restrained. Vocalization or withdrawal reflex thresholds were expressed in grams. […]
# [3] = Spectrophotometric methylene blue H2S release assay in rat liver homogenate; conditions: compound 150 μM, 37 °C
# Experimental: The released H2S, trapped by zinc acetate to form zinc sulfide, reacts with N,N-dimethyl-1,4-phenylenediamine in the presence of iron(III) to yield methylene blue, which can be easily quantified by measuring absorbance at 667 nm (MB^+ form) or at 748 nm (MBH^2+).[42],[43] The compound H2S release in different conditions was monitored over time and quantified according to a calibration curve with Na2S (1–300 μM). Incubation of compound 3 and the hybrid derivatives in phosphate buffer at 37 °C either in the presence or absence of thiol compounds (cysteine or glutathione) produced no or a barely detectable H2S release, respectively. […]
# Rat liver was homogenized in ice-cold 50 mM potassium phosphate buffer (pH 7.4).[41] Optimal w/v ratios of 1/20 were determined from preliminary experiments (data not shown). […] The released H2S concentration was measured as described previously.[45] […] Baseline H2S concentration was determined in incubates upon addition of trichloroacetic acid directly to the tissue homogenate in absence of the compound. Thus, N,N-dimethyl-p-phenylenediamine sulfate in HCl 5 M (20 mM; 200 μL) and FeCl3 in HCl 1.2 M (30 mM; 200 μL) were added to the mixture, and the absorbance of the formed methylene blue was measured after 30 min at 25 °C at 667 nm using a Varian Cary 300 UV–Visible spectrophotometer. […]
# [4] = molecular target: T1, hCA XII (Homo sapiens, UniProt O43570); experiment: Stopped-flow CO2 hydrase assay, hCA XII; conditions: selectivity index, ratio of KIs
# [5] = molecular target: T2, hCA IX (Homo sapiens, UniProt Q16790); experiment: Stopped-flow CO2 hydrase assay, hCA IX; conditions: selectivity index, ratio of KIs
# Experimental: (§3) The uncatalyzed rates were determined in the same manner and subtracted from the total observed rates. Stock solutions of inhibitor (0.1 mM) were prepared in distilled-deionized water and dilutions up to 0.01 nM were done thereafter with the assay buffer. […] The inhibition constants were obtained by nonlinear least-squares methods using PRISM 3 and the Cheng–Prusoff equation, as reported earlier,[39] and represent the mean from at least three different determinations.
# [6] = molecular target: T3, hCA II (Homo sapiens, UniProt P00918); experiment: Stopped-flow CO2 hydrase assay, hCA II; conditions: selectivity index, ratio of KIs
# Experimental: as §3
# [7] = molecular target: T2, hCA IX; set-up: made in house; method as in Bonardi et al. [29,30]; conditions: stopped-flow CO2 hydrase assay; Table S1 footnote b; ref Bonardi et al. [29,30]; cited from earlier work
# [8] = molecular target: T4, hCA IV (Homo sapiens, UniProt P22748); experiment: Stopped-flow CO2 hydrase assay, hCA IV; conditions: selectivity index, ratio of KIs
# [9] = molecular target: hCA I (Homo sapiens, UniProt P00915); set-up: made in house; method as in Bonardi et al. [29,30]; conditions: stopped-flow CO2 hydrase assay; Table S1 footnote b; ref Bonardi et al. [29,30]; cited from earlier work
# [10] = molecular target: T3, hCA II; set-up: made in house; method as in Bonardi et al. [29,30]; conditions: stopped-flow CO2 hydrase assay; Table S1 footnote b; ref Bonardi et al. [29,30]; cited from earlier work
# [11] = molecular target: T1, hCA XII; set-up: made in house; method as in Bonardi et al. [29,30]; conditions: stopped-flow CO2 hydrase assay; Table S1 footnote b; ref Bonardi et al. [29,30]; cited from earlier work
# [12] = molecular target: T4, hCA IV; set-up: made in house; method as in Bonardi et al. [29,30]; conditions: stopped-flow CO2 hydrase assay; Table S1 footnote b; ref Bonardi et al. [29,30]; cited from earlier work
# [13] = per os, 3 13.23 mg/kg, 15 17.71 mg/kg
# T1 sequence (O43570 25-354): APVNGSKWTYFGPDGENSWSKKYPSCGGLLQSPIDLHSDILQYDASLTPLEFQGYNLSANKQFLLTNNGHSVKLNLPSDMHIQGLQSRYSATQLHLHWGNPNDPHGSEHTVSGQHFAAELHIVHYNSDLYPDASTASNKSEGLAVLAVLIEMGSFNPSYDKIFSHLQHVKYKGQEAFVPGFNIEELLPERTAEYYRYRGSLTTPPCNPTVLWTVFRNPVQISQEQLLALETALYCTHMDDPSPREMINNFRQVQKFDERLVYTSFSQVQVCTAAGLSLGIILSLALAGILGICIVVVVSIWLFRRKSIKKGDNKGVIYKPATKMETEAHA
# T4 sequence (P22748 19-312): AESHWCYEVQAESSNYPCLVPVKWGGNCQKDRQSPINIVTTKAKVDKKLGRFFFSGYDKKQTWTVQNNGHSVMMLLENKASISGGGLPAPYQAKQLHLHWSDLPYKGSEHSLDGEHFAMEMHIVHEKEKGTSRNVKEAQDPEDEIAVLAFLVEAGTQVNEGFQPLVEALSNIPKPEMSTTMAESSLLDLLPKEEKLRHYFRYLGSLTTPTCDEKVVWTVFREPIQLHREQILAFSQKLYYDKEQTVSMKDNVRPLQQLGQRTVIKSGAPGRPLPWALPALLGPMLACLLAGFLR
# hCA I, sequence (P00915 whole entry): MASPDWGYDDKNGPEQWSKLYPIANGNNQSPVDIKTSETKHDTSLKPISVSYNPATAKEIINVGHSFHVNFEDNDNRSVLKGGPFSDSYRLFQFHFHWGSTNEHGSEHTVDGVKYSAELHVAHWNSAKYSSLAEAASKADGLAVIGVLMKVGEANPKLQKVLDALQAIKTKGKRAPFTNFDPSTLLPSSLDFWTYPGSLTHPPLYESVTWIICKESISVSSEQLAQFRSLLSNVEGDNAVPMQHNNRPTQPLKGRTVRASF
Compound,"time of peak of efficacy, Incapacitance test ([1]; after per os treatment)","antihyperalgesic effect, Incapacitance test, dose equimolar to 30 30 mg/kg [1, 13]","time of peak antihyperalgesic effect, Paw pressure test ([2]; after per os administration)","antihyperalgesic effect, Paw pressure test, dose equimolar to 30 30 mg/kg [2, 13]",time at which H2S release peaked / reached a plateau [3],SI CA I/XII [4],SI CA II/XII [4],SI CA I/IX [5],SI CA II/IX [5],SI CA I/II [6],pKi [7],SI CA I/IV [8],SI CA II/IV [8],pKi [9],pKi [10],pKi [11],pKi [12]
"O=C(O)c1ccc(-c2cssc2=S)cc1 [Compound 3, 4-(3-Thioxo-3H-1,2-dithiol-4-yl)benzoic Acid]",15 min,comparable to that of the hybrid analogue 30 at its optimal dose,15 min,rapid antihyperalgesic effect that peaked at 15 min and totally disappeared after 45 min,~20 min,,,,,,,,,,,,
"NS(=O)(=O)c1ccc(CCNCc2ccc([N+](=O)[O-])cc2)cc1 [Compound 10, 4-(2-((4-Nitrobenzyl)amino)ethyl)benzenesulfonamide]",,,,,,2.9,1.6,2.5,1.4,1.9,7.05,0.1,0.07,,,,
"NS(=O)(=O)c1ccc(CCNCCc2ccccc2)cc1 [Compound 17, 4-(2-(Phenethylamino)ethyl)benzenesulfonamide]",,,,,,2.6,0.9,2.7,,3.1,6.99,,0.02,,,,
"N#CCCNCCc1ccc(S(N)(=O)=O)cc1 [Compound 18, 4-(2-((2-Cyanoethyl)amino)ethyl)benzenesulfonamide]",,,,,,0.9,1.4,1.0,1.5,0.7,6.98,0.01,0.02,6.98,6.81,6.95,5.26
